How the values were obtained:
AMPA receptor = settings: see Patent Document 1 (WO/JP01/96308); cited from earlier work
[1] = Physical stability in mixing operation in the presence of water or water-ethanol (1:1) mixed solution (powder X-ray diffraction before/after); assay type: physicochemical; settings: mixing in agate mortar at room temperature for a few minutes with dropwise water or water-ethanol (1:1) mixed solution, dried at about 60° C. for 2 to 3 hours
Experimental: Physical Stability in Mixing Operation in the Presence of Water or Water-Ethanol (1:1) Mixed Solution
About 60 to 150 mg of crystals obtained in Reference Example A1 (Anhydrous form II) and crystals obtained in Example 1 (Crystal form IV) were placed in an agate mortar, and the mixing operation was carried out at room temperature for a few minutes while the dropwise addition of water (or water-ethanol (1:1) mixed solution) continues. Subsequently, the crystals were dried at about 60° C. for 2 to 3 hours. The powder X-ray diffraction of the crystals obtained and crystals of before mixing operation were each measured under the following measurement conditions.
D8 DISCOVER with GADDS manufactured by Bruker AXS Ltd.
Tube voltage: 40 kV Tube current: 200 mA Scanning range (2θ): 5 to 40° Collimator: 0.3 mm double slit
The powder X-ray diffraction pattern of Anhydrous form II before and after mixing operation is shown in FIG. 3, and the powder X-ray diffraction pattern of Crystal form IV is shown in FIG. 4. The mixing operation of Anhydrous form II in the presence of water was performed twice.

[2] = Chargeability (static potential of the powder after stirring); assay type: physicochemical; settings: about 1 g stirred for 30 minutes in weighing bottle with fluoroplastic-coated stirring bar
Experimental: About 1 g of respective compounds is weighed into a weighing bottle (diameter of 35 mm). A stirring bar [fluoroplastic (tetrafluoroethylene resin) coating; 20 mm] is placed in the bottle and after the lid is in place, the powders are stirred for 30 minutes. The lid is opened at the same time that stirring is stopped; and the static potential of the powder is measured using a static potential measuring instrument.
STATIRON-DZ3 manufactured by Shishido Electrostatic, Ltd.

| SMILES | antagonistic action against AMPA receptor (AMPA receptor) | change of crystal form in mixing operation (physical stability) [1] | static potential of the powder (chargeability) [2] |
| --- | --- | --- | --- |
| N#Cc1ccccc1-c1cc(-c2ccccn2)cn(-c2ccccc2)c1=O [compound (1), 3-(2-cyanophenyl)-5-(2-pyridyl)-1-phenyl-1,2-dihydropyridin-2-one] | significant antagonistic action | – | – |
| N#Cc1ccccc1-c1cc(-c2ccccn2)cn(-c2ccccc2)c1=O [Example 1, 3-(2-Cyanophenyl)-5-(2-pyridyl)-1-phenyl-1,2-dihydopyridin-2-one] | – | do not change their crystal forms | – |
| N#Cc1ccccc1-c1cc(-c2ccccn2)cn(-c2ccccc2)c1=O [Reference Example A1, 3-(2-cyanophenyl)-5-(2-pyridyl)-1-phenyl-1,2-dihydropyridin-2-one] | – | change their crystal forms | 70-100 V |
